Experimental data as given in patent US20090215625A1, “Combinations of Herbicides and Safeners” (priority 2008, published 2009).
Where two headings read alike, the source gives them in different places.

What was measured:
Lamium amplexicaule = experiment: Broadleaf weed control (JSM 08-5), Lamium amplexicaule; type: in vivo
Excerpt: (§1) Treatments were applied with a CO2 pressurized spray system at a volume of 280 L ha^−1. A four nozzle spray boom utilizing 8002 XR flat fan nozzles (Spraying Systems, Inc, Wheaton, Ill.) on 25 cm spacing and a height of 25 cm was utilized. Spray pressure at the nozzle was 22 PSI and ground speed was 5 km/h. All treatments were applied with 0.25% v/v non-ionic surfactant (X-77 Non-Ionic Surfactant; Helena Chemical Company, Memphis, Tenn.).

Stellaria media = experiment: Broadleaf weed control (JSM 08-5), Stellaria media; type: in vivo
Excerpt: as §1

Geranium carolinianum = experiment: Broadleaf weed control (JSM 08-5), Geranium carolinianum; type: in vivo
Excerpt: as §1

large crabgrass = experiment: Large crabgrass control comparison; type: in vivo, Digitaria spp.; conditions: 1 to 2 tiller growth stage
'Tifway' bermudagrass [1] = conditions: in vivo
'Meyer' zoysiagrass [2] = conditions: in vivo
[3] = test system: 'Palmetto' St. Augustinegrass; conditions: in vivo
'Meyer' zoysiagrass [4] = experiment: Run one visual turfgrass injury, zoysiagrass (JSM08-6); conditions: Rate 0.25 kg ai/ha
'Meyer' zoysiagrass [5] = experiment: Run two visual turfgrass injury, zoysiagrass (JSM08-15)
'Tifway' bermudagrass [6] = experiment: Run one visual turfgrass injury, bermudagrass (JSM 08-4); conditions: Rate 0.25 kg ai/ha
'Tifway' bermudagrass [7] = experiment: Run two visual turfgrass injury, bermudagrass (JSM 08-14)
[8] = test system: 'Palmetto' St. Augustinegrass; experiment: Run one visual turfgrass injury, St. Augustinegrass (JSM 08-8); conditions: Rate 0.25 kg ai/ha
[9] = test system: 'Palmetto' St. Augustinegrass; experiment: Run two visual turfgrass injury, St. Augustinegrass (JSM08-14)
bermudagrass turf [10] = experiment: Safening comparison of propoxycarbazone and flucarbazone, bermudagrass injury
St. Augustinegrass turf = experiment: Safening comparison of propoxycarbazone and flucarbazone, St. Augustinegrass injury
bermudagrass turf [11] = experiment: Tembotrione safening with flucarbazone, bermudagrass injury; set-up: species or system Cynodon dacytlon; conditions: in vivo
Excerpt: as §1
Tembotrione is a carotenoid biosynthesis inhibiting herbicide that injures bermudagrass. Table 5 refers to research data evaluating the safening of flucarbazone when combined with tembotrione. Tembotrione applied at 0.023 to 0.092 kg/ha injured bermudagrass turf from 30 to 72%; with the greatest injury occurring at 0.092. All tembotrione plus flucarbazone treatments reduced bermudagrass injury when compared to the equivalent rates of tembotrione alone. Tembotrione (at 0.092 kg/ha) plus flucarbazone at 0.015 or 0.029 kg/ha injured bermudagrass 20; however, flucarbazone at 0.059 reduced bermudagrass injury greater to 8%. It is likely that higher rates of flucarbazone will be needed to provide adequate bermudagrass safening as higher rates of tembotrione are applied.

St. Augustinegrass = conditions: in vivo

COc1c(Cl)ccc(Cl)c1C(=O)O [Dicamba]
Weed Control 21 DAT Lamium amplexicaule (Lamium amplexicaule; Rate 0.28 kg ai/ha): 10%
Weed Control 21 DAT Stellaria media (Stellaria media; Rate 0.28 kg ai/ha): 65%
Weed Control 21 DAT Geranium carolinianum (Geranium carolinianum; Rate 0.28 kg ai/ha): 73%

COc1nn(C(=O)NS(=O)(=O)c2ccccc2OC(F)(F)F)c(=O)n1C [Flucarbazone, 4,5-dihydro-3-methoxy-4-methyl-5-oxo-N-[2-(trifluoromethoxy)phenylsulfonyl]-1H-1,2,4-triazole-1-carboxamide]
Weed Control 21 DAT Lamium amplexicaule (Lamium amplexicaule; Rate 0.007 kg ai/ha): 3%
Weed Control 21 DAT Lamium amplexicaule (Lamium amplexicaule; Rate 0.029 kg ai/ha): 10%
Weed Control 21 DAT Stellaria media (Stellaria media; Rate 0.007 kg ai/ha): 35%
Weed Control 21 DAT Stellaria media (Stellaria media; Rate 0.029 kg ai/ha): 62%
Weed Control 21 DAT Geranium carolinianum (Geranium carolinianum; Rate 0.007 kg ai/ha): 62%
Weed Control 21 DAT Geranium carolinianum (Geranium carolinianum; Rate 0.029 kg ai/ha): 55%
Large Crabgrass Control 21 DAT (large crabgrass; Rate 0.009 kg ai/ha): 17%
Large Crabgrass Control 51 DAT (large crabgrass; Rate 0.009 kg ai/ha): 0%
Visual Turfgrass Injury ~13 DAT Bermudagrass (JSM 08-4) ('Tifway' bermudagrass [1]): 0%
Visual Turfgrass Injury ~20 DAT Bermudagrass (JSM 08-4) ('Tifway' bermudagrass [1]): 0%
Visual Turfgrass Injury ~13 DAT Zoysiagrass (JSM08-6) ('Meyer' zoysiagrass [2]): 0%
Visual Turfgrass Injury ~20 DAT Zoysiagrass (JSM08-6) ('Meyer' zoysiagrass [2]): 0%
Visual Turfgrass Injury ~13 DAT St. Augustinegrass (JSM 08-8) [3]: 0%

CS(=O)(=O)c1ccc(C(=O)C2C(=O)CCCC2=O)c([N+](=O)[O-])c1 [Mesotrione, 2-(4-methylsulfonyl-2-nitrobenzoyl)cyclohexane-1,3-dione]
Weed Control 21 DAT Lamium amplexicaule (Lamium amplexicaule; Rate 0.28 kg ai/ha): 100%
Weed Control 21 DAT Stellaria media (Stellaria media; Rate 0.28 kg ai/ha): 100%
Weed Control 21 DAT Geranium carolinianum (Geranium carolinianum; Rate 0.28 kg ai/ha): 20%
Large Crabgrass Control 21 DAT (large crabgrass; Rate 0.175 kg ai/ha): 95%
Large Crabgrass Control 51 DAT (large crabgrass; Rate 0.175 kg ai/ha): 78%
Visual Turfgrass Injury ~13 DAT Zoysiagrass (JSM08-6) ('Meyer' zoysiagrass [4]): 30%
Visual Turfgrass Injury ~20 DAT Zoysiagrass (JSM08-6) ('Meyer' zoysiagrass [4]; rated 22 DAT): 0%
Visual Turfgrass Injury 7 DAT Zoysiagrass (JSM08-15) ('Meyer' zoysiagrass [5]; Rate 0.18 kg ai/ha): 18%
Visual Turfgrass Injury 21 DAT Zoysiagrass (JSM08-15) ('Meyer' zoysiagrass [5]; Rate 0.18 kg ai/ha): 20%
Visual Turfgrass Injury 7 DAT Zoysiagrass (JSM08-15) ('Meyer' zoysiagrass [5]; Rate 0.28 kg ai/ha): 22%
Visual Turfgrass Injury 21 DAT Zoysiagrass (JSM08-15) ('Meyer' zoysiagrass [5]; Rate 0.28 kg ai/ha): 23%
Visual Turfgrass Injury ~13 DAT Bermudagrass (JSM 08-4) ('Tifway' bermudagrass [6]): 12%
Visual Turfgrass Injury ~20 DAT Bermudagrass (JSM 08-4) ('Tifway' bermudagrass [6]): 7%
Visual Turfgrass Injury 7 DAT Bermudagrass (JSM 08-14) ('Tifway' bermudagrass [7]; Rate 0.18 kg ai/ha): 32%
Visual Turfgrass Injury 21 DAT Bermudagrass (JSM 08-14) ('Tifway' bermudagrass [7]; Rate 0.18 kg ai/ha): 23%
Visual Turfgrass Injury 7 DAT Bermudagrass (JSM 08-14) ('Tifway' bermudagrass [7]; Rate 0.28 kg ai/ha): 35%
Visual Turfgrass Injury 21 DAT Bermudagrass (JSM 08-14) ('Tifway' bermudagrass [7]; Rate 0.28 kg ai/ha): 27%
Visual Turfgrass Injury ~13 DAT St. Augustinegrass (JSM 08-8) [8]: 5%
Visual Turfgrass Injury ~20 DAT St. Augustinegrass (JSM08-8) [8]: 12%
Visual Turfgrass Injury 7 DAT St. Augustinegrass (JSM08-14) ([9]; Rate 0.18 kg ai/ha): 38%
Visual Turfgrass Injury 21 DAT St. Augustinegrass (JSM08-14) ([9]; Rate 0.18 kg ai/ha): 32%
Visual Turfgrass Injury 7 DAT St. Augustinegrass (JSM08-14) ([9]; Rate 0.28 kg ai/ha): 40%
Visual Turfgrass Injury 21 DAT St. Augustinegrass (JSM08-14) ([9]; Rate 0.28 kg ai/ha): 33%
Turfgrass Injury 15 DAT Bermudagrass (bermudagrass turf [10]; Rate 0.42 kg ai/ha): 28%
Turfgrass Injury 15 DAT St. Augustinegrass (St. Augustinegrass turf; Rate 0.42 kg ai/ha): 35%

CCCOc1nn(C(=O)NS(=O)(=O)c2ccccc2C(=O)OC)c(=O)n1C [Propoxycarbazone, methyl 2-[(4,5-dihydro-4-methyl-5-oxo-3-propoxy-1H-1,2,4-triazole-1-carboxamido)sulfonyl]benzoate]
Turfgrass Injury 15 DAT Bermudagrass (bermudagrass turf [10]; Rate 0.044 kg ai/ha): 0%
Turfgrass Injury 15 DAT Bermudagrass (bermudagrass turf [10]; Rate 0.088 kg ai/ha): 0%
Turfgrass Injury 15 DAT Bermudagrass (bermudagrass turf [10]; Rate 0.177 kg ai/ha): 0%
Turfgrass Injury 15 DAT St. Augustinegrass (St. Augustinegrass turf; Rate 0.044 kg ai/ha): 0%
Turfgrass Injury 15 DAT St. Augustinegrass (St. Augustinegrass turf; Rate 0.088 kg ai/ha): 0%
Turfgrass Injury 15 DAT St. Augustinegrass (St. Augustinegrass turf; Rate 0.177 kg ai/ha): 0%

CS(=O)(=O)c1ccc(C(=O)C2C(=O)CCCC2=O)c(Cl)c1COCC(F)(F)F [Tembotrione, 2-{2-chloro-4-mesyl-3-[(2,2,2-trifluoroethoxy)methyl]benzoyl}cyclohexane-1,3-dione]
Bermudagrass Injury 23 DAT (bermudagrass turf [11]): 0%
bermudagrass turf injury (bermudagrass turf [11]): 30-72%
St. Augustinegrass injury (St. Augustinegrass): no injury was observed
